# Legend:
# [1] = target: T1, human GPR17 receptor (Homo sapiens, UniProt Q13304); test: Calcium mobilization functional assay (Fluo-8, FLIPR TETRA) in HEK-293 hGPR17 (Gα-q assay); assay type: cell-based; settings: antagonism of MDL29,951 (~EC80) induced Ca2+ signal; cell line (HEK-293 hGPR17 or HEK-293 Suchi5 hGPR17) not given
# T1 construct: host or cells: HEK-293
# How it was run: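 Fluo-8-loaded HEK-293 hGPR17 cells (60 min dye loading, room temperature) were preincubated with compound for twenty minutes, then challenged with agonist MDL29,951 at ~EC80, 500 nM. Intracellular calcium release via Gα-q was recorded as FLIPR fluorescence for a further 2 minutes; compounds tested in duplicate.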
# [2] = test system: NMDA receptor; settings: selectivity, background statement; cited from earlier work
# T1 sequence (Q13304 whole entry): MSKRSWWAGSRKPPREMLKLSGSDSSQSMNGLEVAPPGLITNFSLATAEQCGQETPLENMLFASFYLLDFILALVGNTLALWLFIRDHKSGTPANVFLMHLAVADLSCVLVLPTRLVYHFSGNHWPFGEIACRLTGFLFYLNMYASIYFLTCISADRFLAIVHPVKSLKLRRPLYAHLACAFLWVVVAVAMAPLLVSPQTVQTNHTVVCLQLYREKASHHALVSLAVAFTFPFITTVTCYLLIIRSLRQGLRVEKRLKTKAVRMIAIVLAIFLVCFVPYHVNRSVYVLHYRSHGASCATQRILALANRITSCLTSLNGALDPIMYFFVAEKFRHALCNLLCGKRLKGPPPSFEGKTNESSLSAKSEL
SMILES,IC50 [1] [nM],fold more potent as an NMDA receptor antagonist than as a GPR17 activator [2]
"N#Cc1cc(F)c(NS(=O)(=O)c2c[nH]c(-c3cccc4c(C(F)(F)F)coc34)c2)cc1F [Cpd 663, N-(4-cyano-2,5-difluorophenyl)-5-[3-(trifluoromethyl)-1-benzofuran-7-yl]-1H-pyrrole-3-sulfonamide]",500 to 5000,–
"O=S(=O)(Nc1cc(F)c(OC(F)F)cc1F)c1c[nH]c(-c2csc(Cl)c2)c1 [Cpd 664, 5-(5-chlorothiophen-3-yl)-N-[4-(difluoromethoxy)-2,5-difluorophenyl]-1H-pyrrole-3-sulfonamide]",500 to 5000,–
"O=S(=O)(Nc1nc(F)c(OCCF)cc1F)c1c[nH]c(-c2nccs2)c1 [Cpd 665, N-[3,6-difluoro-5-(2-fluoroethoxy)pyridin-2-yl]-5-(1,3-thiazol-2-yl)-1H-pyrrole-3-sulfonamide]",< 500,–
"O=C(O)CCc1c(C(=O)O)[nH]c2cc(Cl)cc(Cl)c12 [MDL29,951, MDL 29,951]",–,approximately ten

# Second part, led by results:
IC50 [1] [nM],SMILES,fold more potent as an NMDA receptor antagonist than as a GPR17 activator [2]
< 500,"O=S(=O)(Nc1cc(F)c(OC(F)F)cc1F)c1c[nH]c(-c2cc(Cl)cs2)c1 [Cpd 666, 5-(4-chlorothiophen-2-yl)-N-[4-(difluoromethoxy)-2,5-difluorophenyl]-1H-pyrrole-3-sulfonamide]",–
5000 to 50000,"N#Cc1cc(F)c(NS(=O)(=O)c2c[nH]c(-c3ncc(C(F)(F)F)s3)c2)cc1F [Cpd 667, N-(4-cyano-2,5-difluorophenyl)-5-[5-(trifluoromethyl)-1,3-thiazol-2-yl]-1H-pyrrole-3-sulfonamide]",–
500 to 5000,"O=S(=O)(Nc1cc(F)c(OC(F)F)cc1F)c1c[nH]c(-c2nc3ccccc3s2)c1 [Cpd 668, 5-(1,3-benzothiazol-2-yl)-N-[4-(difluoromethoxy)-2,5-difluorophenyl]-1H-pyrrole-3-sulfonamide]",–
< 500,"O=S(=O)(Nc1cc(F)c(C(F)(F)F)cc1F)c1c[nH]c(-c2ccoc2Cl)c1 [Cpd 669, 5-(2-chlorofuran-3-yl)-N-[2,5-difluoro-4-(trifluoromethyl)phenyl]-1H-pyrrole-3-sulfonamide]",–
